# Patent US8192962B2, “Processes for detecting toxic substances” (Daikin Industries, Ltd., priority 2001, dated 2012)
# Tested on: Transport facilitation protein genes
# Assay: DNA chip mRNA expression in yeast, transport facilitation protein genes (Table 5)
# Format: cell-based, Saccharomyces cerevisiae S288C
# Procedure, shortened: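 Ratios compare mRNA levels in stressed and control S. cerevisiae. Each toxicant was applied for two hours to log-phase cultures at 25° C. at a sub-lethal, growth-inhibiting level; fluorescent cDNA (Cy3- or Cy5-dUTP) was hybridized to a genome-wide yeast chip for over 12 h at 65° C.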
compound,measurement,setting,value
"CN(C)C(=S)SSC(=S)N(C)C [(10), Tetramethylthiuram disulfide]",The level of expressed mRNA in the presence of chemical substance/The level of expressed mRNA in the absence of chemical substance,yeast gene YBL030C,0.9
same,The level of expressed mRNA in the presence of chemical substance/The level of expressed mRNA in the absence of chemical substance,yeast gene YBL099W,0.7
same,The level of expressed mRNA in the presence of chemical substance/The level of expressed mRNA in the absence of chemical substance,yeast gene YBR052C,2.5
same,The level of expressed mRNA in the presence of chemical substance/The level of expressed mRNA in the absence of chemical substance,yeast gene YBR068C,2.5
same,The level of expressed mRNA in the presence of chemical substance/The level of expressed mRNA in the absence of chemical substance,yeast gene YBR127C,1.3
same,The level of expressed mRNA in the presence of chemical substance/The level of expressed mRNA in the absence of chemical substance,yeast gene YBR132C,1.1
same,The level of expressed mRNA in the presence of chemical substance/The level of expressed mRNA in the absence of chemical substance,yeast gene YBR207W,2.2
same,The level of expressed mRNA in the presence of chemical substance/The level of expressed mRNA in the absence of chemical substance,yeast gene YBR293W,2.4
same,The level of expressed mRNA in the presence of chemical substance/The level of expressed mRNA in the absence of chemical substance,yeast gene YBR294W,5.2
same,The level of expressed mRNA in the presence of chemical substance/The level of expressed mRNA in the absence of chemical substance,yeast gene YBR295W,3.3
same,The level of expressed mRNA in the presence of chemical substance/The level of expressed mRNA in the absence of chemical substance,yeast gene YBR298C,1.1
same,The level of expressed mRNA in the presence of chemical substance/The level of expressed mRNA in the absence of chemical substance,yeast gene YCL025C,0.3
same,The level of expressed mRNA in the presence of chemical substance/The level of expressed mRNA in the absence of chemical substance,yeast gene YCL038C,0.9
same,The level of expressed mRNA in the presence of chemical substance/The level of expressed mRNA in the absence of chemical substance,yeast gene YCR024C-A,0.7
same,The level of expressed mRNA in the presence of chemical substance/The level of expressed mRNA in the absence of chemical substance,yeast gene YCR037C,0.6
same,The level of expressed mRNA in the presence of chemical substance/The level of expressed mRNA in the absence of chemical substance,yeast gene YCR098C,2.4
same,The level of expressed mRNA in the presence of chemical substance/The level of expressed mRNA in the absence of chemical substance,yeast gene YDL128W,0.7
same,The level of expressed mRNA in the presence of chemical substance/The level of expressed mRNA in the absence of chemical substance,yeast gene YDL198C,2.7
same,The level of expressed mRNA in the presence of chemical substance/The level of expressed mRNA in the absence of chemical substance,yeast gene YDL206W,1.5
same,The level of expressed mRNA in the presence of chemical substance/The level of expressed mRNA in the absence of chemical substance,yeast gene YDL210W,1.4
same,The level of expressed mRNA in the presence of chemical substance/The level of expressed mRNA in the absence of chemical substance,yeast gene YDL245C,2.8
same,The level of expressed mRNA in the presence of chemical substance/The level of expressed mRNA in the absence of chemical substance,yeast gene YDR038C,0.9
same,The level of expressed mRNA in the presence of chemical substance/The level of expressed mRNA in the absence of chemical substance,yeast gene YDR039C,1.0
same,The level of expressed mRNA in the presence of chemical substance/The level of expressed mRNA in the absence of chemical substance,yeast gene YDR086C,0.8
same,The level of expressed mRNA in the presence of chemical substance/The level of expressed mRNA in the absence of chemical substance,yeast gene YDR270W,3.6
same,The level of expressed mRNA in the presence of chemical substance/The level of expressed mRNA in the absence of chemical substance,yeast gene YDR298C,1.6
same,The level of expressed mRNA in the presence of chemical substance/The level of expressed mRNA in the absence of chemical substance,yeast gene YDR342C,2.2
same,The level of expressed mRNA in the presence of chemical substance/The level of expressed mRNA in the absence of chemical substance,yeast gene YDR343C,2.1
same,The level of expressed mRNA in the presence of chemical substance/The level of expressed mRNA in the absence of chemical substance,yeast gene YDR345C,1.1
same,The level of expressed mRNA in the presence of chemical substance/The level of expressed mRNA in the absence of chemical substance,yeast gene YDR387C,2.0
same,The level of expressed mRNA in the presence of chemical substance/The level of expressed mRNA in the absence of chemical substance,yeast gene YDR497C,0.8
same,The level of expressed mRNA in the presence of chemical substance/The level of expressed mRNA in the absence of chemical substance,yeast gene YEL027W,1.1
same,The level of expressed mRNA in the presence of chemical substance/The level of expressed mRNA in the absence of chemical substance,yeast gene YEL063C,1.7
same,The level of expressed mRNA in the presence of chemical substance/The level of expressed mRNA in the absence of chemical substance,yeast gene YEL065W,4.9
same,The level of expressed mRNA in the presence of chemical substance/The level of expressed mRNA in the absence of chemical substance,yeast gene YER053C,3.9
same,The level of expressed mRNA in the presence of chemical substance/The level of expressed mRNA in the absence of chemical substance,yeast gene YER119C,1.2
same,The level of expressed mRNA in the presence of chemical substance/The level of expressed mRNA in the absence of chemical substance,yeast gene YFL011W,1.6
same,The level of expressed mRNA in the presence of chemical substance/The level of expressed mRNA in the absence of chemical substance,yeast gene YFL041W,5.1
same,The level of expressed mRNA in the presence of chemical substance/The level of expressed mRNA in the absence of chemical substance,yeast gene YFL050C,1.6
same,The level of expressed mRNA in the presence of chemical substance/The level of expressed mRNA in the absence of chemical substance,yeast gene YFL054C,2.3
same,The level of expressed mRNA in the presence of chemical substance/The level of expressed mRNA in the absence of chemical substance,yeast gene YFL055W,6.5
same,The level of expressed mRNA in the presence of chemical substance/The level of expressed mRNA in the absence of chemical substance,yeast gene YGL006W,1.2
same,The level of expressed mRNA in the presence of chemical substance/The level of expressed mRNA in the absence of chemical substance,yeast gene YGL008C,0.4
same,The level of expressed mRNA in the presence of chemical substance/The level of expressed mRNA in the absence of chemical substance,yeast gene YGL104C,2.1
same,The level of expressed mRNA in the presence of chemical substance/The level of expressed mRNA in the absence of chemical substance,yeast gene YGL167C,1.1
same,The level of expressed mRNA in the presence of chemical substance/The level of expressed mRNA in the absence of chemical substance,yeast gene YGL255W,5.0
same,The level of expressed mRNA in the presence of chemical substance/The level of expressed mRNA in the absence of chemical substance,yeast gene YGR055W,2.4
same,The level of expressed mRNA in the presence of chemical substance/The level of expressed mRNA in the absence of chemical substance,yeast gene YGR065C,2.6
same,The level of expressed mRNA in the presence of chemical substance/The level of expressed mRNA in the absence of chemical substance,yeast gene YGR082W,0.9
same,The level of expressed mRNA in the presence of chemical substance/The level of expressed mRNA in the absence of chemical substance,yeast gene YGR096W,0.8
same,The level of expressed mRNA in the presence of chemical substance/The level of expressed mRNA in the absence of chemical substance,yeast gene YGR138C,1.0
same,The level of expressed mRNA in the presence of chemical substance/The level of expressed mRNA in the absence of chemical substance,yeast gene YGR191W,0.7
same,The level of expressed mRNA in the presence of chemical substance/The level of expressed mRNA in the absence of chemical substance,yeast gene YGR197C,3.2
same,The level of expressed mRNA in the presence of chemical substance/The level of expressed mRNA in the absence of chemical substance,yeast gene YGR224W,0.9
same,The level of expressed mRNA in the presence of chemical substance/The level of expressed mRNA in the absence of chemical substance,yeast gene YGR260W,0.4
